Test results taken from patent US20250213561A1, “SELECTIVE HYPOTHALAMUS PERMEABLE HDAC6 INHIBITORS FOR TREATMENT OF LEPTIN-RESISTANT OBESITY” (The Children’s Medical Center Corporation, priority 2022, published 2025).

Legend:
[1] = system: HDAC6; test: Ac-tubulin immunoblotting in HEK293 cells; type: cell-based
[2] = system: DIO mice; test: Single dose food intake in 24 h fasted DIO mice; type: in vivo; settings: ACY775 10 mg/kg, ACY738 50 mg/kg i.p.
Method: (§1) Food intake was analyzed hourly until 3:00 am. […] DEXA scans were performed in two different cohorts.

[3] = system: DIO mice; test: Chronic treatment of DIO mice (body weight, food intake, DEXA, glucose homeostasis); type: in vivo; settings: for hepatic steatosis (H&E liver): 3 weeks; for food intake: 3 weeks treatment; for glucose tolerance test (GTT): after 1 week; for HOMA-IR insulin resistance / serum insulin levels / serum leptin levels: after 3 weeks; for food intake and total body fat mass (summary): high fat diet induced mice
Method: DIO mice were treated with ACY775 (10 mg/kg/day, i.p.) for 3 weeks. Daily body weight (g) of DIO mice treated with vehicle (n=17) or ACY775 (n=17) during 3 weeks of treatment was determined. Daily food intake (g) during 3 weeks of vehicle or ACY775 treatment was assessed. 24 hours' food intake per mouse during the first week of vehicle or ACY775 treatment was determined. Serum leptin (ng/ml) levels after 3 weeks of vehicle (n=24) or ACY775 (n=24) treatment was assessed. Lean mass (g), fat mass (g) and fat percentage (%) after 3 weeks of vehicle (n=17) or ACY775 (n=17) treatment measured by Dual-energy X-ray absorptiometry (DEXA) scan. DEXA scans were performed in two different cohorts. Glucose tolerance test (GTT) after 1 week of vehicle (n=33) or ACY775 (n=26) treated DIO mice was assessed. Area of curve (AOC) analysis for GTT was performed. Blood glucose (mg/dl) levels after 1 week of vehicle (n=17) or ACY775 (n=16) were assessed in treated DIO mice. Insulin tolerance test (ITT) was performed after 2 weeks of vehicle (n=31) or ACY775 (n=21) treatment of DIO mice. Serum insulin (ng/ml) levels were measured after 3 weeks of vehicle (n=22) or ACY775 (n=21) in treated DIO mice. A homeostatic model assessment of insulin resistance (HOMA-IR) was analyzed after 3 weeks of vehicle (n=14) or ACY775 (n=13) treated DIO mice.
as §1
DIO mice then were treated with ricolinostat (50 mg/kg, i.p.) for 3 weeks. Daily body weight (g), daily food intake (g), serum leptin (ng/ml) levels after 3 weeks of vehicle (n-8) or ricolinostat (n=8) treatment, lean mass (g); fat mass and fat percentage (%) after 3 weeks of vehicle (n=16) or ricolinostat (n=17) treatment measured by DEXA scan were determined.
Blood glucose (mg/dl) levels were measured after 1 week of vehicle (n=16) or ricolinostat (n=16) treated DIO mice. GTT after 1 week of vehicle (n=17) or ricolinostat (n=16) treatment of DIO mice was assessed. AOC analysis for GTT was performed. ITT after 2 weeks of vehicle (n=17) or ricolinostat (n=16) treated DIO mice was measured. Serum insulin (ng/ml) levels after 3 weeks of vehicle (n=8) or ricolinostat (n=8) treatment were measured in DIO mice. Liver sections from 3 weeks of vehicle or ricolinostat treated DIO mice were stained by H&E.
DIO mice then were treated with bavarostat (10 mg/kg, i.p.) for 3 weeks and daily body weight (g) of DIO mice treated with Veh (n=9) or bavarostat (n=9) measured during the three weeks of treatment period. Daily food intake (g) during 3 weeks of Veh or bavarostat treatment was also measured.
ACY1083 was administered to DIO mice as described in Example 3.

[4] = system: DIO mice; test: CLAMS metabolic cages in DIO mice; type: in vivo; settings: for energy expenditure: 3 days, ACY775 10 mg/kg, ACY738 50 mg/kg i.p.
Method: Diet induced obese (DIO) mice were placed into metabolic cages and received ACY775 (10 mg/kg, i.p., n=7) or vehicle (n=8) once a day for 3 days. Energy expenditure, respiratory exchange ratios (RER; VCO2/VO2), ambulatory count (physical activity) from each group of mice were determined. Bar graphs represent average of two dark (8-20 and 32-44 hr) and two light cycles ([…]).
Comprehensive Lab Animal Monitoring System (CLAMS) was used to measure metabolic parameters such as energy expenditure (EE) and respiratory exchange ratio (RER) and physical activity levels in Vehicle- and ACY775-treated mice.

[5] = system: DIO mice; test: Conditioned place preference (CPP) assay in DIO mice; type: in vivo; settings: for time and frequency in the food zone / time and frequency in the food-containing white side chambers: fed and fasting conditions; for cumulative duration in the dark side chambers: fed or fasting conditions
Method: DIO mice were treated with vehicle or ACY775 (10 mg/kg, i.p., once a day) for 3 days. On the fourth day, 1 h after the beginning of the light cycle, the mice were administered vehicle or ACY775 (10 mg/kg, i.p.) and the conditioned place preference (CPP) assay under the ad libitum feeding condition was utilized. The CPP assay was performed 6 h later under the ad libitum feeding condition (n=10 mice for both the Vehicle- and ACY775-treated groups). CPP assay under a 20-h fasting condition was also performed. DIO mice were treated with vehicle or ACY775 (10 mg/kg, i.p.) once a day and fasted for 15 h after the third injection. On the fourth day, 1 h after the beginning of the light cycle, the mice were administered vehicle or ACY775 (10 mg/kg body weight, i.p.) and the CPP assay was performed 5 h after this injection under the fasting condition (n=10 mice for both the Vehicle- and ACY775-treated groups).
Measurements were made of the total distance that the mice traveled during the CPP test, the average velocity of movement during the assay, the total time the mice spent in the dark chamber during the test; the frequency with which the mice traveled to the dark chamber during the test; the total time the mice spent in the food-paired white chamber; the frequency with which the mice traveled to the food paired white chamber; the total time the mice spent in the food-containing zone within the food-paired side chamber; and the frequency with which the mice traveled to the food-containing zone within the food-paired side chamber during the test.

[6] = system: HDAC6-KO DIO mice; test: Chronic treatment of DIO WT versus HDAC6 KO mice; type: in vivo; settings: for blood glucose, serum insulin and leptin levels, WT versus HDAC6 KO / fat mass and fat %, WT versus HDAC6 KO / food intake, WT versus HDAC6 KO / glucose tolerance and insulin sensitivity (GTT, ITT), WT versus HDAC6 KO / lean mass, WT versus HDAC6 KO / body weight, WT versus HDAC6 KO: DIO mice; for body weight, WT versus HDAC6 KO: 3 weeks, ACY775 10, ACY738 50, Tubastatin A 25 mg/kg/day i.p.

Compound | tubulin acetylation (HDAC6 inhibitor activity in cells) [1] | food intake after a single dose [2] | hepatic steatosis (H&E liver) ([3]; DIO mice) | food intake ([3]; DIO mice) | glucose tolerance test (GTT) ([3]; DIO mice) | HOMA-IR insulin resistance ([3]; DIO mice) | serum insulin levels ([3]; DIO mice) | serum leptin levels ([3]; DIO mice) | food intake and total body fat mass (summary) [3] | energy expenditure [4] | time and frequency in the food zone [5] | time and frequency in the food-containing white side chambers [5] | cumulative duration in the dark side chambers [5] | blood glucose, serum insulin and leptin levels, WT versus HDAC6 KO [6] | fat mass and fat %, WT versus HDAC6 KO [6] | food intake, WT versus HDAC6 KO [6] | glucose tolerance and insulin sensitivity (GTT, ITT), WT versus HDAC6 KO [6] | lean mass, WT versus HDAC6 KO [6] | body weight, WT versus HDAC6 KO [6] | other results
O=C(NO)c1cnc(NC2(c3cccc(F)c3)CCCCC2)nc1 [ACY775, 2-[[1-(3-fluorophenyl)cyclohexyl]amino]-N-hydroxy-5-pyrimidinecarboxamide] | increases tubulin acetylation | significantly reduced/blocked the food intake | almost completely abolished hepatic steatosis | highly significant reduction | significantly improved glucose tolerance | significantly reduced the insulin resistance | significantly reduced the circulating insulin levels | significantly downregulated | significant reduction of food intake and total body fat mass | higher in the both dark and light cycle | spent significantly shorter time and displayed lower frequency of appearance | spent significantly shorter time and had lower frequency of appearance | no significant differences in cumulative duration | all significantly higher in the ACY775-treated HDAC6 KO group | significantly lower in the wt group compared to the HDAC6 KO group | blocked in the HDAC6 KO mice | could not increase glucose tolerance and insulin sensitivity in the HDAC6 KO mice | not different | highly significant decrease in the bodyweight of the WT DIO mice when compared to HDAC6 KO DIO mice | daily food intake on treatment ([3]; DIO mice, ACY775 10 mg/kg, ACY738 50 mg/kg i.p.): 0.85 ± 0.06 g; physical activity level ([4]; dark and light cycles): not different
O=C(NO)c1cnc(NC2(c3ccccc3)CC2)nc1 [ACY738] | inhibits the HDAC6 activity | significantly reduced/blocked the food intake | improved hepatic steatosis | severely reduced | significant improvement of glucose homeostasis | ameliorated insulin resistance | reduced insulin levels | significantly decreased | significant reduction of food intake and total body fat mass | higher energy expenditure in light cycle, though without significant difference in dark cycle | spent significantly shorter time and displayed lower frequency of appearance | spent similar time and frequency of appearance | no significant differences in cumulative duration | all significantly higher in the ACY738-treated HDAC6 KO group | significantly lower in the wt group compared to the HDAC6 KO group | significantly higher in the HDAC6 KO group | did not improve glucose tolerance and increase insulin sensitivity in the HDAC6 KO mice | not different | major difference | insulin tolerance test (ITT) ([3]; DIO mice): improved insulin tolerance; body weight in HDAC6 KO mice ([6]; DIO HDAC6 KO mice): slight decrease
